This note sets out measurements from patent publication US12115209B2, “ROMO1-derived antimicrobial peptides including lysine substitution and variants thereof” (KOREA UNIVERSITY RESEARCH AND BUSINESS FOUNDATION, priority 2019, dated 2024).

Format in all cases: cell-based
Experiment [1] has as its system Pseudomonas aeruginosa, Staphylococcus aureus, CRPA, MRSA. Description: Increase in antibacterial activity (MBC) compared with KU-5878.
Experiment [2] relates to Methicillin-resistant Staphylococcus aureus (MRSA, ATCC 33591). Description: Minimum bactericidal concentration (MBC) assay. Also noted: unit: µg/mL. In a few lines: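 Peptide at 0 to 300 μg/ml reacted 1 h at 37 °C with 1×10^5 CFU/ml bacteria in SP buffer (10 mM sodium phosphate, 1% TSB), bacteria pre-grown in 3% TSB. Aliquots then spread on TS agar and checked for colonies after 18 h at 37 °C.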

In experiment [3] the test system is Staphylococcus aureus (ATCC 29213). The experiment is described as follows: Minimum bactericidal concentration (MBC) assay. Details: MBC Staphylococcus aureus: unit: µg/mL. The procedure, abridged: (§1)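 P. aeruginosa ATCC 27853 and S. aureus ATCC 29213 grown in 3% TSB at 37° C, 200 rpm, then diluted in SP buffer (10 mM sodium phosphate, 1% TSB). Peptides (0–300 μg/ml) exposed to 1×10^5 CFU/ml for 1 h at 37° C; aliquots plated on TS agar, 18 h. MBC = lowest concentration giving no colonies.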

In experiment [4] the test system is Pseudomonas aeruginosa (ATCC 27853). The experiment is described as follows: Minimum bactericidal concentration (MBC) assay. Details: MBC Pseudomonas aeruginosa: unit: µg/mL. The procedure, abridged: as §1
A further experiment relates to CRPA. Description: Minimum bactericidal concentration (MBC) assay. Also noted: unit: µg/mL.
The mark [5] stands for this setting: mark = antibacterial activity increased compared with KU-5878.

“KT-MQSGGTFGTFMAIGMGIR [Peptide 5878-d60M]” gave an Increase in activity in experiment [1] (setting [5]) of 0. This substance also registered an MBC MRSA in experiment [2] (Tables 11-21, no unit printed) of 100 µg/mL. For the same substance, the MBC Staphylococcus aureus in experiment [3] (Tables 11-21, no unit printed) stood at 90 µg/mL. Further, the MBC Pseudomonas aeruginosa in experiment [4] (Tables 11-21, no unit printed) stood at 90 µg/mL. In addition, in the experiment on CRPA (Tables 11-21, no unit printed), the MBC CRPA turned out to be 90 µg/mL.

“KTMM-SGGTFGTFMAIGMGIR [Peptide 5878-4620]” displayed an Increase in activity in experiment [1] (setting [5]) of 0. Also, the MBC MRSA in experiment [2] (Tables 11-21, no unit printed) was determined as 100 µg/mL. In experiment [3] (Tables 11-21, no unit printed), the MBC Staphylococcus aureus came to 90 µg/mL. In experiment [4] (Tables 11-21, no unit printed), this substance had an MBC Pseudomonas aeruginosa of 100 µg/mL. The MBC CRPA against CRPA (Tables 11-21, no unit printed) is 100 µg/mL.

With “KTMMQS-GTFGTFMAIGMGIR [Peptide 5878-d64G]”, the Increase in activity in experiment [1] (setting [5]) was determined as 0. The MBC MRSA in experiment [2] (Tables 11-21, no unit printed) was 100 µg/mL. In experiment [3] (Tables 11-21, no unit printed), this substance displayed an MBC Staphylococcus aureus of 100 µg/mL. In experiment [4] (Tables 11-21, no unit printed), the MBC Pseudomonas aeruginosa is 100 µg/mL. The MBC CRPA in the experiment with CRPA (Tables 11-21, no unit printed) amounted to 110 µg/mL.

Turning to “KTMMQSGG-FGTFMAIGMGIR [Peptide 5878-d66T]”, the Increase in activity in experiment [1] (setting [5]) was determined as 0. Moreover, the MBC MRSA in experiment [2] (Tables 11-21, no unit printed) came out at 90 µg/mL. The substance further registered an MBC Staphylococcus aureus in experiment [3] (Tables 11-21, no unit printed) of 90 µg/mL. In experiment [4] (Tables 11-21, no unit printed), the MBC Pseudomonas aeruginosa was determined as 90 µg/mL. In the experiment on CRPA (Tables 11-21, no unit printed), this substance had an MBC CRPA of 100 µg/mL.

“KTMMQSGGTF-TFMAIGMGIR [Peptide 5878-d68G]” came in with an Increase in activity in experiment [1] (setting [5]) of 0. The MBC MRSA in experiment [2] (Tables 11-21, no unit printed) is 25 µg/mL. Moreover, the MBC Staphylococcus aureus in experiment [3] (Tables 11-21, no unit printed) came to 20 µg/mL. In experiment [4] (Tables 11-21, no unit printed), the MBC Pseudomonas aeruginosa was 25 µg/mL. The substance further gave an MBC CRPA in the experiment on CRPA (Tables 11-21, no unit printed) of 18 µg/mL.

In turn, “KTMMQSGGTFGTFMAI-MGIR [Peptide 5878-d74G]” registered an Increase in activity in experiment [1] (setting [5]) of 0. For the same substance, the MBC MRSA in experiment [2] (Tables 11-21, no unit printed) was found to be 25 µg/mL. In experiment [3] (Tables 11-21, no unit printed), this substance registered an MBC Staphylococcus aureus of 25 µg/mL. In experiment [4] (Tables 11-21, no unit printed), this substance came in with an MBC Pseudomonas aeruginosa of 20 µg/mL. Moreover, the MBC CRPA in the experiment on CRPA (Tables 11-21, no unit printed) is 30 µg/mL.

Take “KTMMQSGGTFGTFMAIG-GIR [Peptide 5878-d75M]”: the Increase in activity in experiment [1] (setting [5]) was 0. Also, the MBC MRSA in experiment [2] (Tables 11-21, no unit printed) is 110 µg/mL. The same substance had an MBC Staphylococcus aureus in experiment [3] (Tables 11-21, no unit printed) of 100 µg/mL. The same substance registered an MBC Pseudomonas aeruginosa in experiment [4] (Tables 11-21, no unit printed) of 100 µg/mL. In the experiment on CRPA (Tables 11-21, no unit printed), this substance gave an MBC CRPA of 100 µg/mL.

For “KTMMQSGGTFGTFMAIGM-IR [Peptide 5878-d76G]”, in experiment [1] (setting [5]), the Increase in activity came to 0. In addition, the MBC MRSA in experiment [2] (Tables 11-21, no unit printed) worked out at 90 µg/mL. In experiment [3] (Tables 11-21, no unit printed), the MBC Staphylococcus aureus was determined as 70 µg/mL. Besides, the MBC Pseudomonas aeruginosa in experiment [4] (Tables 11-21, no unit printed) was found to be 80 µg/mL. The same substance gave an MBC CRPA with CRPA (Tables 11-21, no unit printed) of 90 µg/mL.

For “KTMMQSGGTFGTFMAIGMGIRKK [Peptide 5878-KK]”, the Increase in activity entry in experiment [1] (setting [5]) is listed as “◯”. The substance also showed an MBC MRSA in experiment [2] (Tables 11-21, no unit printed) of 16 µg/mL. In experiment [3] (Tables 11-21, no unit printed), this substance showed an MBC Staphylococcus aureus of 16 µg/mL. In addition, the MBC Pseudomonas aeruginosa in experiment [4] (Tables 11-21, no unit printed) was 15 µg/mL. In the experiment on CRPA (Tables 11-21, no unit printed), the MBC CRPA turned out to be 16 µg/mL.

As for “KTMMQSGGTFGTFMAIGMGIRRRR [Peptide 5878-3R]”, the Increase in activity result in experiment [1] (setting [5]) is recorded as “◯”. In addition, the MBC MRSA in experiment [2] (Tables 11-21, no unit printed) is 10 µg/mL. Further, in experiment [3] (Tables 11-21, no unit printed), the MBC Staphylococcus aureus was 8 µg/mL. Besides, the MBC Pseudomonas aeruginosa in experiment [4] (Tables 11-21, no unit printed) was 8 µg/mL. Besides, the MBC CRPA against CRPA (Tables 11-21, no unit printed) turned out to be 8 µg/mL.

TKMMKKGGKFGTFMAIGMGIR [Peptide K4-K58T]: the Increase in activity result in experiment [1] (setting [5]) was “◯”. Besides, the “MBC MRSA” value in experiment [2] (Tables 11-21, no unit printed) was 4. Further, in experiment [3] (Tables 11-21, no unit printed), the “MBC Staphylococcus aureus” value is 3. The “MBC Pseudomonas aeruginosa” value in experiment [4] (Tables 11-21, no unit printed) is 3. In addition, in the experiment with CRPA (Tables 11-21, no unit printed), the “MBC CRPA” value is 3.

With d 58K 60M 71M 72A (MKKGGKFGTF), the Increase in activity result in experiment [1] (compared with KU-5878) was “◯”. The MBC MRSA in experiment [2] (MRSA) turned out to be 20 µg/mL. This substance had an MBC Staphylococcus aureus in experiment [3] (Staphylococcus aureus) of 15 µg/mL. Further, the MBC Pseudomonas aeruginosa in experiment [4] (Pseudomonas aeruginosa) worked out at 20 µg/mL. This substance also displayed an MBC CRPA against CRPA (CRPA) of 20 µg/mL.

Regarding d 58K 64G 72A 75M (GKFGTFM), in experiment [1] (compared with KU-5878), the Increase in activity entry was “◯”. Moreover, in experiment [2] (MRSA), the MBC MRSA amounted to 8 µg/mL. In addition, the MBC Staphylococcus aureus in experiment [3] (Staphylococcus aureus) was found to be 6 µg/mL. The substance also registered an MBC Pseudomonas aeruginosa in experiment [4] (Pseudomonas aeruginosa) of 6 µg/mL. The MBC CRPA in the experiment on CRPA (CRPA) was found to be 8 µg/mL.

On to d 60M 61M 71M 75M (KKGGKFGTF), for which the Increase in activity entry in experiment [1] (compared with KU-5878) is reported as “◯”. In experiment [2] (MRSA), the MBC MRSA stood at 2 µg/mL. Moreover, the MBC Staphylococcus aureus in experiment [3] (Staphylococcus aureus) was 1 µg/mL. In addition, the MBC Pseudomonas aeruginosa in experiment [4] (Pseudomonas aeruginosa) stood at 2 µg/mL. Further, the MBC CRPA in the experiment with CRPA (CRPA) amounted to 2 µg/mL.

For the substance d 60M 62K 71M 75M (KGGKFGTF), the Increase in activity entry in experiment [1] (compared with KU-5878) is “◯”. This substance also yielded an MBC MRSA in experiment [2] (MRSA) of 3 µg/mL. Further, the MBC Staphylococcus aureus in experiment [3] (Staphylococcus aureus) was found to be 2 µg/mL. In experiment [4] (Pseudomonas aeruginosa), the MBC Pseudomonas aeruginosa turned out to be 2 µg/mL. In the experiment with CRPA (CRPA), this substance yielded an MBC CRPA of 3 µg/mL.

For d 60M 69T 71M 75M (MKKGGKFG), the Increase in activity entry in experiment [1] (compared with KU-5878) is “◯”. In experiment [2] (MRSA), the MBC MRSA turned out to be 2 µg/mL. The MBC Staphylococcus aureus in experiment [3] (Staphylococcus aureus) was 1 µg/mL. Also, the MBC Pseudomonas aeruginosa in experiment [4] (Pseudomonas aeruginosa) was 2 µg/mL. For the same substance, in the experiment with CRPA (CRPA), the MBC CRPA worked out at 2 µg/mL.

On to d 60M 71M 72A 75M (MKKGGKFGTF), for which the Increase in activity entry in experiment [1] (compared with KU-5878) was “◯”. In addition, the MBC MRSA in experiment [2] (MRSA) came out at 3 µg/mL. The substance also displayed an MBC Staphylococcus aureus in experiment [3] (Staphylococcus aureus) of 1 µg/mL. This substance also registered an MBC Pseudomonas aeruginosa in experiment [4] (Pseudomonas aeruginosa) of 2 µg/mL. This substance returned an MBC CRPA against CRPA (CRPA) of 2 µg/mL.
